From PubChem BioAssay (NCI)
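Five compound concentrations were applied to cells in 96-well plates for 48 hours; endpoints were derived by simple linear interpolation of the resulting dose-response curve. TGI is the concentration that stops growth completely.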

What was measured:
Assay in all cases: NCI anticancer screen, dose series, 48 h
CCRF-CEM leukemia = system: CCRF-CEM leukemia
COLO 205 colon = system: COLO 205 colon
HL-60(TB) leukemia = system: HL-60(TB) leukemia
IGROV1 ovarian = system: IGROV1 ovarian
K-562 leukemia = system: K-562 leukemia
KM12 colon = system: KM12 colon
MOLT-4 leukemia = system: MOLT-4 leukemia
NCI-H226 lung = system: NCI-H226 lung
NCI-H460 lung = system: NCI-H460 lung
OVCAR-3 ovarian = system: OVCAR-3 ovarian
OVCAR-4 ovarian = system: OVCAR-4 ovarian
RPMI-8226 leukemia = system: RPMI-8226 leukemia
SK-MEL-5 melanoma = system: SK-MEL-5 melanoma
SNB-19 CNS = system: SNB-19 CNS
SNB-75 CNS = system: SNB-75 CNS
SR leukemia = system: SR leukemia
SW-620 colon = system: SW-620 colon
TK-10 renal = system: TK-10 renal
UACC-257 melanoma = system: UACC-257 melanoma
UO-31 renal = system: UO-31 renal

| Compound | TGI (CCRF-CEM leukemia) [µM] | TGI (COLO 205 colon) [µM] | TGI (HL-60(TB) leukemia) [µM] | TGI (IGROV1 ovarian) [µM] | TGI (K-562 leukemia) [µM] | TGI (KM12 colon) [µM] | TGI (MOLT-4 leukemia) [µM] | TGI (NCI-H226 lung) [µM] | TGI (NCI-H460 lung) [µM] | TGI (OVCAR-3 ovarian) [µM] | TGI (OVCAR-4 ovarian) [µM] | TGI (RPMI-8226 leukemia) [µM] | TGI (SK-MEL-5 melanoma) [µM] | TGI (SNB-19 CNS) [µM] | TGI (SNB-75 CNS) [µM] | TGI (SR leukemia) [µM] | TGI (SW-620 colon) [µM] | TGI (TK-10 renal) [µM] | TGI (UACC-257 melanoma) [µM] | TGI (UO-31 renal) [µM] |
| --- | --- | --- | --- | --- | --- | --- | --- | --- | --- | --- | --- | --- | --- | --- | --- | --- | --- | --- | --- | --- |
| CN(C)CCN(C(=Nc1ccccc1)N1CCCC1)c1ccccc1 | > 100 | > 100 | > 100 | > 100 | > 100 | > 100 | > 100 | > 100 | > 100 | > 100 | > 100 | 82.3 | > 100 | > 100 | > 100 | > 100 | > 100 | > 100 | > 100 | > 100 |
| C[N+](C)=c1nc(N2CCc3ccccc3C2)ss1 | > 100 | > 100 | > 100 | > 100 | > 100 | > 100 | > 100 | > 100 | > 100 | > 100 | > 100 | > 100 | > 100 | > 100 | > 100 | > 100 | > 100 | > 100 | > 100 | > 100 |
| O=C(N/N=C\C(F)(F)F)c1ccncc1 | > 100 | > 100 | > 100 | > 100 | > 100 | > 100 | > 100 | > 100 | > 100 | > 100 | > 100 | > 100 | > 100 | > 100 | > 100 | > 100 | > 100 | > 100 | > 100 | > 100 |
| NCc1cc(O)c(O)c(O)c1 | > 100 | > 100 | > 100 | > 100 | > 100 | > 100 | > 100 | > 100 | > 100 | > 100 | > 100 | > 100 | > 100 | > 100 | > 100 | > 100 | > 100 | > 100 | > 100 | > 100 |
| Cc1ccc(S(=O)(=O)NCCCSCCSCCCN)cc1 | > 100 | > 100 | > 100 | – | > 100 | > 100 | > 100 | > 100 | > 100 | > 100 | > 100 | – | > 100 | > 100 | > 100 | > 100 | > 100 | > 100 | > 100 | > 100 |
| COC(=O)C1=C(C)N2CCOC2CC1c1ccccc1 (stereo unspecified) | > 100 | > 100 | > 100 | > 100 | > 100 | > 100 | > 100 | > 100 | > 100 | > 100 | > 100 | > 100 | > 100 | > 100 | > 100 | > 100 | > 100 | > 100 | > 100 | > 100 |
| CCN(CC)CCN(C(=O)c1ccc(F)cc1)c1ccccc1N | > 10 | > 10 | > 10 | > 10 | > 10 | > 10 | > 10 | > 10 | > 10 | > 10 | > 10 | > 10 | > 10 | > 10 | > 10 | > 10 | > 10 | > 10 | – | > 10 |
| C/C(=N\NC(=S)NCc1ccccc1)c1nc2ncccc2[nH]1 | 19.2 | 34.4 | > 100 | 34.1 | 41.5 | 21.5 | 17.5 | 20.8 | 27.6 | 39.8 | 83 | 59.9 | 14.6 | 50.2 | 49 | > 100 | > 100 | 73.4 | 22.1 | 11 |
| Cc1ccc(S(=O)(=O)NNC2Oc3cc4c(cc3C(c3ccccc3O)C2C)OCO4)cc1 (stereo unspecified) | 34.5 | 29.5 | 40.8 | 27.2 | 50.2 | 26.5 | 42.7 | 28.3 | 24.5 | 23.7 | – | 47.1 | 27.6 | 25.6 | 23.3 | 33.4 | 29.7 | 31.3 | 23.3 | 23 |
| COc1cc(C(=O)Nc2cc(C(N)=O)cc(OC)c2OC)cc(NC(=O)/C=C/c2ccccc2)c1OC | > 100 | > 100 | > 100 | > 100 | > 100 | > 100 | > 100 | – | > 100 | > 100 | > 100 | > 100 | – | > 100 | – | > 100 | > 100 | > 100 | > 100 | > 100 |
| CNCCC=C1c2ccccc2CCc2ccccc21 | 29.3 | 21 | 31.7 | 30.7 | 30.5 | 29.6 | 29.4 | 38 | 28.5 | 23.6 | 28.6 | 32.8 | 25.5 | 31.6 | 21.6 | 32.7 | 34.6 | 28 | 19.9 | 18.2 |
| O=C(CCN1CCOCC1)C(=Cc1ccccc1)C(=O)CCN1CCOCC1 | 7.84 | 6.97 | 3.52 | 20.3 | 2.15 | 13 | 3.09 | 29.4 | 28.3 | 14.4 | 19.9 | 4.14 | 18.2 | 28.3 | 29.7 | – | 4.29 | – | 3.5 | 27.6 |
| COc1cc2oc(=O)ccc2cc1CC=C(C)C | > 100 | > 100 | 33.1 | > 100 | > 100 | > 100 | > 100 | 98.6 | > 100 | > 100 | > 100 | 61 | 73.7 | > 100 | > 100 | 57.4 | > 100 | 97.5 | > 100 | 97.9 |
